Activity calls are given as the source filed them. The rule behind the calls is not given here.
Target: Dual specificity protein phosphatase 6 (Rattus norvegicus) (UniProt Q64346)
Assay: reproducibility of MKP-3 inhibition curves – biochemical, rat DUSP6, reproducibility testing, probe assessment, dose response (AID 566)
Settings: recombinant MKP-3 phosphatase, fluorescence substrate

Sequence of Dual specificity protein phosphatase 6 (Rattus norvegicus) (Q64346 whole entry, looked up): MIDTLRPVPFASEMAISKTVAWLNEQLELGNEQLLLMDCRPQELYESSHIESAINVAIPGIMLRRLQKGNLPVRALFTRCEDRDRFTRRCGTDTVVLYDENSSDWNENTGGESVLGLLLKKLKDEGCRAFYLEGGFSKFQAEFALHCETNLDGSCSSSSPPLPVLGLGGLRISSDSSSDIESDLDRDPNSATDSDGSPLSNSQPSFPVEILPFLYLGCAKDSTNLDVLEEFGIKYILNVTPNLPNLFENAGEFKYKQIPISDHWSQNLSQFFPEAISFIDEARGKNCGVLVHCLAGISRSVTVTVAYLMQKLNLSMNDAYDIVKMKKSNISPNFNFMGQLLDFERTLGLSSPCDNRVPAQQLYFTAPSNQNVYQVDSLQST

## O=C1C(C2=C(O)c3ccccc3C2=O)=Nc2ccccc21
  IC50: > 50 µM (inactive)

— PubChem BioAssay AID566 (University of Pittsburgh Molecular Library Screening Center, 2006)
